# Data reported in US6737383B1, “Herbicidal oxadiazolidines” (priority 1999, dated 2004).
# How the values were obtained:
# Conditions in all cases: Preemergence
# crabgrass = assay: Test B pre/postemergence crabgrass; format: in vivo, Digitaria sanguinalis
# From the text: (§1) Seeds of bedstraw (Galium aparine), blackgrass (Alopecurus myosuroides), surinam grass (Brachiaria decumbens), cocklebur (Xanthium strumarium), corn (Zea mays), crabgrass (Digitaria sanguinalis), giant foxtail (Setaria faberii), morningglory (Ipomoea hederacea), pigweed (Amaranthus retroflexus), rape (Brassica napus), soybean (Glycine max), sugar beet (Beta vulgaris), velvetleaf (Abutilon theophrasti), wheat (Triticum aestivum), wild oat (Avena fatua) and purple nutsedge (Cyperus rotundus) tubers were planted and treated preemnergence with test chemicals formulated in a non-phytotoxic solvent mixture which included a surfactant.
# (§2) At the same time, these crop and weed species were also treated with postemergence applications of test chemicals formulated in the same manner. Plants ranged in height from 2 to 18 cm (1- to 4-leaf stage) for postemergence treatments. Plant species in the flood test consisted of rice (Oryza sativa), smallflower flatsedge (Cyperus difformis), duck salad (Heteranthera limosa) and bamyardgrass (Echinochloa crus-galli) grown to the 2-leaf stage for testing. Treated plants and controls were maintained in a greenhouse for twelve to sixteen days, after which all species were compared to controls and visually evaluated. Plant response ratings, summarized in Table B, are based on a scale of 0 to 10 where 0 is no effect and 10 is complete control. A dash (−) response means no test result.
# wild oat = assay: Test B pre/postemergence wild oat; format: in vivo, Avena fatua
# From the text: as §1, §2
# cocklebur = assay: Test B pre/postemergence cocklebur; format: in vivo, Xanthium strumarium
# From the text: as §1, §2
# giant foxtail = assay: Test B pre/postemergence giant foxtail; format: in vivo, Setaria faberii
# From the text: as §1, §2
# soybean = assay: Test B pre/postemergence soybean; format: in vivo, Glycine max
# From the text: as §1, §2
# pigweed = assay: Test B pre/postemergence pigweed; format: in vivo, Amaranthus retroflexus
# From the text: as §1, §2
# wheat = assay: Test B pre/postemergence wheat; format: in vivo, Triticum aestivum
# From the text: as §1, §2
# sugar beet = assay: Test B pre/postemergence sugar beet; format: in vivo, Beta vulgaris
# From the text: as §1, §2
# corn = assay: Test B pre/postemergence corn; format: in vivo, Zea mays
# From the text: as §1, §2
# rape = assay: Test B pre/postemergence rape; format: in vivo, Brassica napus
# From the text: as §1, §2
# purple nutsedge = assay: Test B pre/postemergence purple nutsedge; format: in vivo, Cyperus rotundus
# From the text: as §1, §2
# bedstraw = assay: Test B pre/postemergence bedstraw; format: in vivo, Galium aparine
# From the text: as §1, §2
# blackgrass = assay: Test B pre/postemergence blackgrass; format: in vivo, Alopecurus myosuroides
# From the text: as §1, §2
# surinam grass = assay: Test B pre/postemergence surinam grass; format: in vivo, Brachiaria decumbens
# From the text: as §1, §2
# morningglory = assay: Test B pre/postemergence morningglory; format: in vivo, Ipomoea hederacea
# From the text: as §1, §2
# velvetleaf = assay: Test B pre/postemergence velvetleaf; format: in vivo, Abutilon theophrasti
# From the text: as §1, §2
# [1] = Rate 125 g/ha, scale of 0 to 10 where 0 is no effect and 10 is complete control
# [2] = Rate 250 g/ha, scale 0 (no effect) to 10 (complete control)
# [3] = Rate 500 g/ha, scale 0 to 10 (0 no effect, 10 complete control)
# [4] = Rate 62 g/ha, scale of 0 to 10 where 0 is no effect and 10 is complete control
smiles,measurement,setting,value
CC(C)N(C(=O)n1oc(=O)n(CCC(=O)N(C)C)c1=O)c1ccc(Cl)cc1 [Compound 719],"Plant response rating, Crabgrass",crabgrass; [1],3
same,Crabgrass plant response rating,crabgrass; [2],8
same,Crabgrass plant response rating,crabgrass; [3],9
same,Wild oats plant response rating,wild oat; [4],2
same,"Plant response rating, Wild oats",wild oat; [1],6
same,Wild oats plant response rating,wild oat; [2],9
same,Wild oats plant response rating,wild oat; [3],9
same,Cocklebur plant response rating,cocklebur; [4],0
same,"Plant response rating, Cocklebur",cocklebur; [1],0
same,Cocklebur plant response rating,cocklebur; [2],0
same,Cocklebur plant response rating,cocklebur; [3],0
same,"Plant response rating, Giant foxtail",giant foxtail; [1],5
same,Giant foxtail plant response rating,giant foxtail; [2],8
same,Giant foxtail plant response rating,giant foxtail; [3],10
same,Soybean plant response rating,soybean; [4],0
same,"Plant response rating, Soybean",soybean; [1],0
same,Soybean plant response rating,soybean; [2],0
same,Soybean plant response rating,soybean; [3],0
same,Redroot pigweed plant response rating,pigweed; [4],7
same,"Plant response rating, Redroot pigweed",pigweed; [1],7
same,Redroot pigweed plant response rating,pigweed; [2],10
same,Redroot pigweed plant response rating,pigweed; [3],10
same,Wheat plant response rating,wheat; [4],0
same,"Plant response rating, Wheat",wheat; [1],0
same,Wheat plant response rating,wheat; [2],3
same,Wheat plant response rating,wheat; [3],5
same,Sugarbeets plant response rating,sugar beet; [4],4
same,"Plant response rating, Sugarbeets",sugar beet; [1],4
same,Sugarbeets plant response rating,sugar beet; [2],6
same,Sugarbeets plant response rating,sugar beet; [3],8
same,Corn plant response rating,corn; [4],0
same,"Plant response rating, Corn",corn; [1],0
same,Corn plant response rating,corn; [2],0
same,Corn plant response rating,corn; [3],5
same,Rape plant response rating,rape; [4],0
same,"Plant response rating, Rape",rape; [1],0
same,Rape plant response rating,rape; [2],2
same,Rape plant response rating,rape; [3],6
same,Nutsedge plant response rating,purple nutsedge; [4],0
same,"Plant response rating, Nutsedge",purple nutsedge; [1],0
same,Nutsedge plant response rating,purple nutsedge; [2],0
same,Nutsedge plant response rating,purple nutsedge; [3],0
same,Bedstraw plant response rating,bedstraw; [4],0
same,"Plant response rating, Bedstraw",bedstraw; [1],0
same,Bedstraw plant response rating,bedstraw; [2],0
same,Bedstraw plant response rating,bedstraw; [3],0
same,Blackgrass plant response rating,blackgrass; [4],6
same,"Plant response rating, Blackgrass",blackgrass; [1],8
same,Blackgrass plant response rating,blackgrass; [2],9
same,Blackgrass plant response rating,blackgrass; [3],10
same,B. signalgrass plant response rating,surinam grass; [4],3
same,"Plant response rating, B. signalgrass",surinam grass; [1],7
same,B. signalgrass plant response rating,surinam grass; [2],7
same,B. signalgrass plant response rating,surinam grass; [3],9
same,Morningglory plant response rating,morningglory; [4],0
same,"Plant response rating, Morningglory",morningglory; [1],1
same,Morningglory plant response rating,morningglory; [2],3
same,Morningglory plant response rating,morningglory; [3],3
same,Velvetleaf plant response rating,velvetleaf; [4],0
same,"Plant response rating, Velvetleaf",velvetleaf; [1],0
same,Velvetleaf plant response rating,velvetleaf; [2],0
same,Velvetleaf plant response rating,velvetleaf; [3],0
